Source: PubChem BioAssay (NCI)
Several values for one entry are separate records, joined by “and”; a condition that tells them apart may be missing. Equal entries are not always repeated.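 Assay format: 96-well plates, 48-hour exposure. GI50: concentration for 50% inhibition of growth. TGI marks complete inhibition of growth.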

Columns and labels:
Assay in all cases: DTP human tumour cell line panel, 48 h
786-0 renal = system: 786-0 renal
EKVX NSCLC = system: EKVX NSCLC
HOP-62 NSCLC = system: HOP-62 NSCLC
OVCAR-4 ovarian = system: OVCAR-4 ovarian
OVCAR-5 ovarian = system: OVCAR-5 ovarian
RPMI-8226 leukemia = system: RPMI-8226 leukemia
SK-MEL-5 melanoma = system: SK-MEL-5 melanoma
SK-OV-3 ovarian = system: SK-OV-3 ovarian
SN12C renal = system: SN12C renal
SNB-75 CNS = system: SNB-75 CNS

SMILES | GI50 (786-0 renal) | TGI (786-0 renal) | GI50 (EKVX NSCLC) | TGI (EKVX NSCLC) | GI50 (HOP-62 NSCLC) | TGI (HOP-62 NSCLC) | GI50 (OVCAR-4 ovarian) | TGI (OVCAR-4 ovarian) | GI50 (OVCAR-5 ovarian) | TGI (OVCAR-5 ovarian) | GI50 (RPMI-8226 leukemia) | TGI (RPMI-8226 leukemia) | GI50 (SK-MEL-5 melanoma) | TGI (SK-MEL-5 melanoma) | GI50 (SK-OV-3 ovarian) | TGI (SK-OV-3 ovarian) | GI50 (SN12C renal) | TGI (SN12C renal) | GI50 (SNB-75 CNS) | TGI (SNB-75 CNS)
CCCCCCCCCCCCCCCC(=O)OCC1OC(OCCCC)[C@H](O[C@@H]2OC(C)C(OC(=O)CCC)C(O)C2O)C(O)C1O (stereo partly drawn) | 16.7 µM | 30.8 µM | 19.4 µM | 36.5 µM | 16.8 µM | 30.8 µM | 18.1 µM | 34.2 µM | 14.2 µM | 27.6 µM | 16.8 µM | 33.4 µM | 17.7 µM | 34.2 µM | 5.12 µM | 16.1 µM | 14.1 µM | 28.5 µM | 14.4 µM | 28.7 µM
O=C1CC[C@@H](S(=O)(=O)c2ccccc2)[C@H](/C=C/c2ccccc2)O1 |  | > 100 µM |  | > 100 µM |  | > 100 µM |  | > 100 µM |  | > 100 µM |  | > 100 µM |  | > 100 µM |  | > 100 µM |  | > 100 µM |  | > 100 µM
C=C1C2CCCC1C1(S(C)(=O)=O)CCCCC21O (stereo not drawn) |  | > 100 µM |  | > 100 µM |  |  |  | > 100 µM |  | > 100 µM |  | > 100 µM |  | > 100 µM |  | > 100 µM |  | > 100 µM |  | > 100 µM
CN(C)CC1CCCC/C1=N\OC(=O)c1ccccc1 (stereo not drawn) |  | > 100 µM |  | > 100 µM |  | > 100 µM |  | > 100 µM |  | > 100 µM |  | > 100 µM |  | > 100 µM |  | > 100 µM |  | > 100 µM |  | > 100 µM
CC[C@@]1(O)C(=O)OCc2c1cc1n(c2=O)Cc2cc3cc(O)ccc3nc2-1 |  | 0.9 µM | 0.107 µM and 0.903 µM |  | < 0.0075 µM | 0.0319 µM and 0.153 µM | 0.224 µM | 0.441 µM and 3.17 µM | 0.122 µM |  | 0.139 µM and 0.277 µM | 6.03 µM and 4.87 µM | 0.0247 µM and 0.0167 µM | 0.111 µM and 0.0959 µM | < 0.0124 µM | 0.7 µM and 1.85 µM |  | 1.48 µM and 3.54 µM |  | 0.206 µM and 0.107 µM
C/C(=N\O)C1CC(CC(=O)O)C1(C)C (stereo not drawn) |  | > 100 µM |  | > 100 µM |  | > 100 µM |  | > 100 µM |  | > 100 µM |  | > 100 µM |  | > 100 µM |  | > 100 µM |  | > 100 µM |  | > 100 µM
Nc1nc(N)c2c(Cl)c(CNc3ccc(Cl)c(Cl)c3)ccc2n1 |  | 8.39 µM |  | 19.2 µM |  | 6.59 µM |  | 16.9 µM |  | 12.1 µM |  | 12.5 µM |  | 4.65 µM |  | 16.1 µM |  | 23.3 µM |  | 18.4 µM
CC(=O)[CH-]C(=O)c1ccccc1.CC(=O)[CH-]C(=O)c1ccccc1.CC(=O)[CH-]C(=O)c1ccccc1.[Cl-].[Hf+4] | 25.7 µM | > 100 µM | 24.2 µM | 92.9 µM | 51.2 µM | > 100 µM | 86.5 µM | > 100 µM | 22.8 µM | 71.8 µM | 34.2 µM | > 100 µM | 32.5 µM | > 100 µM | 46.1 µM | > 100 µM | 28.8 µM | > 100 µM | 22.2 µM | 70.4 µM
Cc1ncnc2c1ccn2[C@@H]1C[C@H](Oc2cc(C(F)F)c(F)c3c2CNCC3)[C@@H](O)[C@H]1O | > 100 µM | > 100 µM | > 100 µM | > 100 µM | > 100 µM | > 100 µM | > 100 µM | > 100 µM | > 100 µM | > 100 µM | > 100 µM | > 100 µM | > 100 µM | > 100 µM | > 100 µM | > 100 µM | > 100 µM | > 100 µM | > 100 µM | > 100 µM
[pH]1p2[pH]p3p1p3[pH]2.c1cc[c]([Ge]([c]2ccccc2)[c]2ccccc2)cc1.c1cc[c]([Ge]([c]2ccccc2)[c]2ccccc2)cc1.c1cc[c]([Ge]([c]2ccccc2)[c]2ccccc2)cc1 | 17.1 µM | 32.3 µM | 21.3 µM | 46.3 µM | 28.7 µM | 66.1 µM | 25.2 µM | 56.7 µM | 18.2 µM | 34.1 µM | 17.6 µM | 75.5 µM | 34.1 µM | 53.1 µM | 15.4 µM | 33.8 µM | 15.1 µM | 29.7 µM | 10.1 µM | 32.4 µM
O=C(Nc1ccc(Nc2ccc(NC(=O)c3ccccc3)c3c2C(=O)c2ccccc2C3=O)c2c1C(=O)c1ccccc1C2=O)c1ccccc1 |  | > 100 µM |  | > 100 µM |  | > 100 µM |  | > 100 µM |  |  |  | > 100 µM |  | > 100 µM |  | > 100 µM |  | > 100 µM |  | > 100 µM
CCN(CC)CCOc1ccc2c(-c3ccccc3)c(-c3ccc(OC)cc3)c(=O)oc2c1 | 2.22 µM | 5.37 µM | 6.14 µM | 20.3 µM | 4.47 µM | 16.8 µM | 4.8 µM | 18.1 µM | 12 µM | 24.9 µM | 2.56 µM | 11.8 µM | 1.77 µM | 3.55 µM | 11 µM | 23 µM | 10.8 µM | 23.9 µM | 3.69 µM | 16.7 µM
CC(=O)CCC[C@@H](C)[C@@H]1O[C@H]([C@@]2(C)CCC(=O)O2)CC2[C@H]1OC(=O)C21CC1 (stereo partly drawn) | > 100 µM | > 100 µM | 8.03 µM | 49.5 µM |  |  | > 100 µM | > 100 µM | > 100 µM | > 100 µM | > 100 µM | > 100 µM | 21.7 µM | 92.4 µM | > 100 µM | > 100 µM | > 100 µM | > 100 µM | > 100 µM | > 100 µM
N=C1C(c2nc3ccccc3c(=O)[nH]2)=C(O)CN1c1cccc(Cl)c1 | 4.05 µM | > 100 µM | 8.29 µM | > 100 µM | 4.7 µM | > 100 µM | > 23 µM | > 100 µM | > 30.8 µM | > 100 µM | 2.15 µM | 6.37 µM | 1.26 µM | 7.55 µM | 5.55 µM | > 100 µM | 19.2 µM | > 100 µM | 3.83 µM | > 100 µM
COc1ccc(C(=O)C(c2ccc(OC)cc2)C2(O)C(=O)Nc3c(Cl)cc(Cl)cc32)cc1 (stereo not drawn) |  | 29 µM |  | 38.9 µM |  | 54.4 µM |  | 20.1 µM |  | 40.9 µM |  | 33.6 µM |  | 34.7 µM |  | 90.6 µM |  | 35.6 µM |  | 58.6 µM
Cn1cc(Nc2nccc(-c3ccc4c(c3)CN(C3COC3)CC[C@H]4NC(=O)c3cn(C(C)(C)C)nn3)n2)cn1 | 50.5 µM | > 100 µM | > 100 µM | > 100 µM | > 100 µM | > 100 µM | > 100 µM | > 100 µM | 45.2 µM | > 100 µM | > 100 µM | > 100 µM | 26.3 µM | > 100 µM | 62.5 µM | > 100 µM | 75.3 µM | > 100 µM | 24.4 µM | > 100 µM
COc1cc(C(=O)/C=C/c2cccnc2Nc2ccc(Cl)cc2)cc(OC)c1OC | 1.46 µM | 2.78 µM | 1.61 µM | 3.16 µM | 1.65 µM | 3.13 µM | 1.51 µM | 2.98 µM | 1.74 µM | 3.32 µM | 0.655 µM | 5.01 µM | 1.5 µM | 2.84 µM | 1.72 µM | 3.29 µM | 1.46 µM | 2.86 µM | 1.63 µM | 3 µM
COC(=O)COc1ccccc1/C=C1/N=C(c2ccccc2)N(c2c(C)n(C)n(-c3ccccc3)c2=O)C1=O | > 100 µM | > 100 µM | > 100 µM | > 100 µM | > 100 µM | > 100 µM | 75.1 µM | > 100 µM | > 100 µM | > 100 µM | 28.9 µM | > 100 µM | > 100 µM | > 100 µM | > 100 µM | > 100 µM | > 100 µM | > 100 µM | > 100 µM | > 100 µM
Cc1[nH]c2ccccc2c1/C=C/c1c(C)[nH]c2ccccc12 |  | > 100 µM |  | > 100 µM |  | > 100 µM |  | > 100 µM |  | > 100 µM |  | > 100 µM |  | > 100 µM |  | > 100 µM |  |  |  | > 100 µM
O=C(NNC1=NS(=O)(=O)c2ccccc2N1c1ccccc1)c1cnccn1 | > 100 µM | > 100 µM | > 100 µM | > 100 µM | > 100 µM | > 100 µM | > 100 µM | > 100 µM |  |  | > 100 µM | > 100 µM | > 100 µM | > 100 µM | > 100 µM | > 100 µM | > 100 µM | > 100 µM | > 100 µM | > 100 µM
COC12OCCN(C)C1=CC(=O)C1N=NCC12 (stereo not drawn) |  | > 100 µM |  | > 100 µM |  |  |  |  |  |  |  | > 100 µM |  | > 100 µM |  | > 100 µM |  | > 100 µM |  | > 100 µM
O=C1CCC2(c3ccccc3)OCC([C@@H](O)c3ccccc3)N12 (stereo partly drawn) |  | > 100 µM |  | > 100 µM |  | > 100 µM |  | > 100 µM |  | > 100 µM |  | > 100 µM |  | > 100 µM |  |  |  | > 100 µM |  | > 100 µM
CC1CN1c1c(C(=O)/C=C/c2ccc(F)cc2)c(-c2ccccc2)nn(C)c1=O (stereo not drawn) |  | 29.2 µM |  | 33.4 µM |  | 38.9 µM |  | 42.7 µM |  | 25.2 µM |  | 32.2 µM |  | 29.5 µM |  |  |  | 29.1 µM |  | 28.7 µM
